# Reference: patent publication US4980349A, “Sulphonamides derived from diarylmethanes, the processes for preparing them and pharmaceutical compositions containing them” (SANOFI, priority 1986, dated 1990)
# “Also recorded” adds a separate entry of the source.
# Assays:
# [1] = system: rat hind foot kaolin-induced arthritis; assay: Kaolin-induced arthritis test, second experiment, acute phase (volume of the foot at the 8th hour); assay type: in vivo; conditions: po, 8 h, Table IXa; for change in vivo at 25 mg/kg / change in vivo at 50 mg/kg / change in vivo at 100 mg/kg: 8th hour, read-out: percentage significant decrease in the volume of the treated foot; for ED50: foot volume, read-out: 50% active dose
# Method: (§1) The […] of 0.05 ml of a sterile 10% strength suspension of kaolin into the metatarsal flexor sheath of the hind foot of a rat initially induces an oedematous reaction. An inflammatory arthritis then forms.
# The early oedematous reaction appears from the first hour, and reaches its maximum between the fourth hour and the sixth hour. This is the manifestation of interest. The assessment of the volume of the foot enables the action of substances on the oedematous reaction to be studied. The measurements are carried out using a Giono and Chevilard plethysmometer.
# (§2) The test products are administered orally (stomach tube) one hour before the injection of the kaolin.
# (§3) In a second experiment, a more elaborate study was performed in order to ascertain the effect of the products, on the one hand on the acute phase of the inflammatory reaction (measured by the volume of the foot at the 8th hour), and on the other hand on the chronic phase (activity measured by the weight of the foot at the 12th hour).
# As in the previous experiment, ketoprofen was used as the comparative product:
# The results are expressed as a percentage significant decrease in the volume of the treated foot compared with the controls.
# [2] = system: rat hind foot kaolin-induced arthritis; assay: Kaolin-induced arthritis test, second experiment, chronic phase (weight of the foot at the 12th hour); assay type: in vivo; conditions: po, 12 h, Table IXb; for change in vivo at 25 mg/kg / change in vivo at 50 mg/kg / change in vivo at 100 mg/kg: 12th hour, read-out: percentage significant decrease in the weight of the treated foot; for ED50: foot weight, read-out: 50% active dose
# Method: as §1, §2, §3
# As in the previous experiment, ketoprofen was used as the comparative product: […]
# [3] = system: rat hind foot carragheenin-induced oedema; assay: Carragheenin-induced oedema test; assay type: in vivo; conditions: 3 h, second experiment, Table Xa, read-out: percentage inhibition of the inflammation; for change in vivo at 25 mg/kg: 25 mg/kg oral; for change in vivo at 50 mg/kg: 50 mg/kg oral; for change in vivo at 100 mg/kg: 100 mg/kg oral
# Method: In this test, 10 rats are used per test compound of the invention. Control batches of 10 rats also receive either the comparative compound (ketoprofen) or exclusively an NaCl solution.
# The compounds of the invention are administered orally (stomach tube) one hour before the injection of carragheenin.
# The carragheenin is suspended at a concentration of 1% in a 0.9% isotonic sodium chloride solution. The volume injected into the rat's foot is 0.20 ml.
# The volume of the foot is measured before the injection and 3 hours later. The antagonistic effect of the products towards carragheenin is reflected in the inhibition of the volume of the oedema compared with control rats. The latter receive only isotonic NaCl solution under identical conditions.
# [4] = system: foreign-body (sponge) granuloma in rats; assay: Experimental granuloma induced by foreign body, histological study; assay type: in vivo, Wistar rats; conditions: second experiment, day 8; Table XIa
# Method: (§4) This test consists in studying the subacute cellular phase which is developed in the 8 days which follow the implantation of a foreign body, a sponge of non-resorbable plastic, in the dorsal subcutaneous connective tissue in rats.
# The granulomas formed are removed 8 days after the implantation; a histological study is carried out after fixing the tissue and staining sections with hematein/ eosin. The observation is more especially concerned with the cell population of the primary phase of the formation of the granulation tissue: the reticulohistocytic cells, lymphocytes and more especially the macrophages.
# (§5) The animals used are Wistar rats weighing 120-140 g and of the same origin, maintained under the same conditions of housing throughout the treatment (8 days).
# (§6) The compounds of the invention are administered orally, in a gum suspension, in the morning in a fasted state, using an oesophageal tube.
# After 8 days of treatment, the rats are sacrificed by decapitation and the granulomas removed and prepared for the purpose of histological examination.
# The experiment conditions are as follows:
# The animals are distributed in batches of 10;
# Each test product is administered at 2 doses, of 50 and 100 mg, respectively, to 2 batches of 10 animals;
# Ketoprofen is used by way of reference product at the same 2 doses and under the same conditions; and
# A batch of 10 control animals receives no treatment.
# (§7) In this experiment, on the one hand a histological study of the granulomas is performed by sampling on day 8 (results recorded in Table XIa), and on the other hand a study of the weight of the granulomas was performed 10 days after the implantation (results recorded in Table XIb).
# [5] = system: foreign-body (sponge) granuloma in rats; assay: Experimental granuloma induced by foreign body, weight of the granulomas; assay type: in vivo, Wistar rats; conditions: Rattus norvegicus, po, 240 h, 10 days after implantation, Table XIb, read-out: decrease in the weight of the granulomas
# Method: as §4, §5, §6, §7
# [6] = system: pain threshold of brewer's yeast inflamed rat hind foot; assay: Randall and Sellitto's test (analgesic activity); assay type: in vivo; conditions: second experiment, Table XIIa; for change in vivo at 25 mg/kg: 25 mg/kg oral; for change in vivo at 25 mg/kg / change in vivo at 50 mg/kg / change in vivo at 100 mg/kg: read-out: percentage increase in the mean pain threshold; for change in vivo at 50 mg/kg: 50 mg/kg oral; for change in vivo at 100 mg/kg: 100 mg/kg oral
# Method: Inflammation increases the sensitivity to pain, in particular to pressure, and analgesics raise the threshold of the sensitivity.
# The inflammation is obtained by injecting 0.1 ml of a 20% strength aqueous suspension of brewer's yeast under the plantar aponeurosis of one of the hind feet. […] The pain threshold is assessed in terms of the force necessary and sufficient to initiate a characteristic reaction of withdrawing the foot.
# The sensitivity to pain of the inflamed foot reaches a plateau 4 hours after the injection of the brewer's yeast, and then remains stable until the 6th hour. The pain threshold of the inflamed foot in control rats weighing 140 g is reached for pressures of 50 to 60 g, whereas it is around 160 g for the intact foot.
# The action of the substance administered orally to series of 10 rats is expressed in terms of the percentage increase in the mean pain threshold, compared with that measured in the rats of a control series of 10 animals which have not received a compound of the invention.
# The test products are administered orally (stomach tube) one hour before the injection of brewer's yeast.
# The comparative compound used is ketoprofen.
# [7] = system: biosynthesis of leukotrienes B4 (LTB4), human polymorphonuclear leukocytes; assay: Biosynthesis of LTB4, isomers and oxidized metabolites in human polymorphonuclear leukocytes; assay type: cell-based; conditions: Leukocyte, second experiment, read-out: Percentage inhibition of LTB4 formation
# Method: Polymorphonuclear leukocytes are isolated from human blood and used during the 6 hours following the withdrawal. The viability of the cells is checked by trypan blue exclusion.
# 5×10^6 cells are incubated for 10 minutes at 37° C. in the presence of the test product dissolved in DMSO, and are stimulated with ionophore A 23187 (Galbiochem, 10 μM) in PBS buffer at pH 7.4, Ca^2+ and Mg^2+ =1 μM.
# 100 ng of prostaglandin B2 (PGB2), dissolved in methanol, are added at the end of the reaction to act as an internal standard.
# On centrifugation, the culture supernatant is withdrawn. The latter is retrieved under argon and stored at -80° C. until analysed by HPLC.
# This analysis is carried out by injecting 250 μl onto a 5 μm ODS ultrasphere column (Beckmann), with a gradient of acetonitrile (20-80%) in water, at pH 7.4.
# The amounts of the different products which absorb at 269 nm, i.e. leukotrienes B4 (LTB4), isomers of LTB4 and oxidized metabolites of LTB4, are estimated by comparison with the internal standard.
# The test product is used at a concentration of 40 μM.
# They are expressed either as a percentage inhibition, or as a percentage increase in the production of LTB4, isomers of LTB4 and oxidized metabolites of LTB4 (designated by +).
# The experimental model is the same as that described in Section 2.1. Other products are tested by comparison with the compound of the invention no. 1574, used as a control.
Structure (SMILES),change in vivo at 25 mg/kg [1] [%],change in vivo at 50 mg/kg [1] [%],change in vivo at 100 mg/kg [1] [%],ED50 [1] [mg/kg],change in vivo at 25 mg/kg [2] [%],change in vivo at 50 mg/kg [2] [%],change in vivo at 100 mg/kg [2] [%],ED50 [2] [mg/kg],change in vivo at 25 mg/kg [3] [%],change in vivo at 50 mg/kg [3] [%],change in vivo at 100 mg/kg [3] [%],histological study of the granuloma (inflammatory connective / granulation tissue) [4],change in vivo at 25 mg/kg [5] [%],change in vivo at 50 mg/kg [5] [%],change in vivo at 100 mg/kg [5] [%],change in vivo at 25 mg/kg [6] [%],change in vivo at 50 mg/kg [6] [%],change in vivo at 100 mg/kg [6] [%],inhibition at 40 µM [7] [%],"ED50 ([6]; po, analgesia, read-out: 50% active dose) [mg/kg]"
O=C(O)CCCCCCCCCCCNS(=O)(=O)c1ccc(Cl)cc1C(=O)c1ccccc1Cl [Compound 1755],-48 ± 5,-50 ± 5,-55 ± 5,25,-45,-55,-58,25,-45,-52,-55,Granuloma poorly developed,-45,-50,-55,40,50,55,100,
O=C(O)CCCCCCCCCCNS(=O)(=O)c1ccc(Cl)c(C(=O)c2ccc(Cl)cc2)c1 [Compound 1761],-38 ± 5,-45 ± 5,-50 ± 5,100,-40 ± 5,-45 ± 5,-50 ± 5,100,-30,-35,-45,Diminished production of inflammatory granulation,-25,-30,-45,40,45,50,100,
O=C(O)CCCCCCCCCCNS(=O)(=O)c1ccc(Cl)c(C(=O)c2ccc(Cl)cc2Cl)c1 [Compound 1763],-35 ± 5,-45 ± 5,-50 ± 5,100,-38 ± 5,-40 ± 5,-48 ± 5,100,-30,-35,-45,Peripheral shell of low density,-15,-20,-45,40,42,45,100,
O=C(O)CCCCCCCCCCCNS(=O)(=O)c1ccc(Cl)c(C(=O)c2ccc(Cl)cc2Cl)c1 [Compound 1764],-45 ± 5,-55 ± 5,-60 ± 5,50,-45 ± 5,-52 ± 5,-58 ± 5,50,-45,-48,-52,Peripheral shell of low density; also recorded: lightly inflammatory,-45,-50,-55,50,55,58,100,25
